The target of the test is T1, Gag-Pol polyprotein [588-1027]/[588-1147] (Human immunodeficiency virus 1, UniProt P04585).
T1 construct: 588-1027; 588-1147
The test is described as follows: HIV-1 RT Assay. The following applies: pH 7.8; 37 °C. From the text:
The IC50 of reverse transcriptase is the concentration that inhibits 50% of recombinant HIV-1 RT RNA-directed DNA polymerase activity in vitro.

This note sets out measurements from BindingDB's records for doi:10.1016/s0960-894x(99)00675-7 (Medivir, 2000).

`COc1ccccc1CCN=C(NC#N)Nc1nccs1` [2-cyano-3-[2-(2-methoxyphenyl)ethyl]-1-1,3-thiazol-2-ylguanidine]: the half-maximal inhibitory concentration (IC50) was above 10 µM.

Regarding `O=C(CCNC(=S)Nc1ccc(Br)cn1)c1ccccc1` [3-(5-bromopyridin-2-yl)-1-(3-oxo-3-phenylpropyl)thiourea], the IC50 is below 0.027 µM.

In the case of `O=C(CC/N=C(\S)Nc1ccc(Br)cn1)c1cc(F)ccc1F` [3-(5-bromopyridin-2-yl)-1-[3-(2,5-difluorophenyl)-3-oxopropyl]thiourea], the IC50 is below 0.025 µM.

Compound `N#CN/C(=N\c1ccc(Cl)cn1)NCCc1ccccc1` [5-chloro-2-cyano-1-(2-phenylethyl)pyridine-2-guanidine] came in with an IC50 above 10 µM.

On to `O=S(=O)(NCCc1ccccc1)Nc1ccc(Cl)cn1` [[(5-chloropyridin-2-yl)sulfamoyl](2-phenylethyl)amine], for which the IC50 was above 10 µM.

By IC50 is commonly meant the concentration that gives 50% inhibition.
